Holding throughout (type): cell-based
The target in one test is T1, RAR gamma (Homo sapiens, UniProt P13631).
T1 sequence (P13631 185-419 limits assumed): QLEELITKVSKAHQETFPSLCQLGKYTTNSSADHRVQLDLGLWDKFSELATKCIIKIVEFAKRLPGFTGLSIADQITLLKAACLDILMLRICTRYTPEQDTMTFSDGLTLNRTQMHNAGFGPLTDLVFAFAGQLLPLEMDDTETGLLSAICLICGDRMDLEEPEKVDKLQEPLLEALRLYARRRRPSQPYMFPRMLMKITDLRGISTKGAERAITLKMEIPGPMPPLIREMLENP
Description: Transactivation test, HeLa cells stably transfected with RAR gamma ER-DBD and ERE-luciferase reporter. The following applies: for AC50: at the reference ligand concentration that gives 80% activation; for Kd: crossed curves against reference antagonist, Schild regression, read-out: RAR gamma Kd app. How it is done: (§1) The activation of receptors with an agonist (activator) in HeLa cells leads to the expression of a reporter gene, luciferase, which, in the presence of a substrate, generates light. The activation of the receptors may thus be measured by quantifying the luminescence produced after incubating the cells in the presence of a reference antagonist. The activating products displace the antagonist from its site, thus permitting activation of the receptor. The activity is measured by quantifying the increase in light produced. This measurement makes it possible to determine the activating activity of the compounds according to the invention.
(§2) In this study, a constant is determined which is the affinity of the molecule for the receptor. Since this value can fluctuate depending on the basal activity and the expression of the receptor, it is referred to as the Kd apparent (KdApp).
(§3) To determine this constant, “crossed curves” of the test product against a reference antagonist, 4-(5,5-dimethyl-8-p-tolyl-5,6-dihydro-2-naphthalen-2-ylethynyl)benzoic acid, are performed in 96-well plates. The test product is used at 10 concentrations and the reference antagonist at 7 concentrations. In each well, the cells are in contact with a concentration of the test product and a concentration of the reference antagonist, 4-(5,5-dimethyl-8-p-tolyl-5,6-dihydro-2-naphthalen-2-ylethynyl)benzoic acid. Measurements are also taken for the total agonist (4-[2-(5,5,8,8-tetramethyl-5,6,7,8-tetrahydro-2-naphthyl)propenyl]benzoic acid) and inverse agonist, 4-{(E)-3-[4-(4-tert-butylphenyl)-5,5,8,8-tetramethyl-5,6,7,8-tetrahydro-2-naphthyl]-3-oxopropenyl}benzoic acid, controls.
(§4) These crossed curves make it possible to determine the AC50 values (concentration at which 50% activation is observed) for the reference ligand at various concentrations of test product. These AC50 values are used to calculate the Schild regression by plotting a straight line corresponding to the Schild equation (“Quantitation in Receptor Pharmacology” Terry P. Kenakin, Receptors and Channels, 2001, 7, 371-385).
(§5) In the case of an agonist, an AC50 value (concentration that gives 50% of the activity) is calculated by plotting the curve of the product at the concentration of the reference ligand that gives 80% activation.
(§6) The HeLa cell lines used are stable transfectants containing the plasmids ERE-μGlob-Luc-SV-Neo (reporter gene) and RAR (α, β, γ) ER-DBD-puro. These cells are inoculated into 96-well plates at a rate of 10 000 cells per well in 100 μl of DMEM medium without phenol red, and supplemented with 10% defatted calf serum. […]
(§7) The culture medium is removed by turning over and 100 μl of a 1:1 PBS/luciferin mixture is added to each well. After 5 minutes, the plates are read using the luminescence reader.
On the technique in general: A reporter such as luciferase makes a cellular process visible.

The target of the next test is T2, RAR beta (Homo sapiens, UniProt P10826).
T2 sequence (P10826 183-417 limits assumed): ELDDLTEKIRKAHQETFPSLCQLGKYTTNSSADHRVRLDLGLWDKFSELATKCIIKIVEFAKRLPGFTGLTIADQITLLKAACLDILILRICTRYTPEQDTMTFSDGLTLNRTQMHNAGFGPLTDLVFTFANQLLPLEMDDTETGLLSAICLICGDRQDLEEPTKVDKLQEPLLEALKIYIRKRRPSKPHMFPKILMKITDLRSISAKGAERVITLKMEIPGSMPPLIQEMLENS
Put plainly: Transactivation test, HeLa cells stably transfected with RAR beta ER-DBD and ERE-luciferase reporter. The following applies: for AC50: at the reference ligand concentration that gives 80% activation; for Kd: crossed curves against reference antagonist, Schild regression, read-out: RAR beta Kd app. The protocol:
as §1, §2, §3, §4, §5, §6, §7

The target of the next test is T3, RAR alpha (Homo sapiens, UniProt P10276).
T3 sequence (P10276 183-417 limits assumed): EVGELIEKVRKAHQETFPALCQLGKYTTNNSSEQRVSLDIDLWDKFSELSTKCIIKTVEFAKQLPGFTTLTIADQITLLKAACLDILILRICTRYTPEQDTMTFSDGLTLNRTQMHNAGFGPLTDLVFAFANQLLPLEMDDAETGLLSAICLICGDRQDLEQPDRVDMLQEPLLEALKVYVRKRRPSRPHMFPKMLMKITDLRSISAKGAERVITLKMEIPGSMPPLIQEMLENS
Description: Transactivation test, HeLa cells stably transfected with RAR alpha ER-DBD and ERE-luciferase reporter. The protocol: as §1
In this study, a constant is determined which is the affinity of the molecule for the receptor. […]
as §4
In the case of an agonist, an AC50 value (concentration that gives 50% of the activity) is calculated by plotting the curve of the product at the concentration of the reference ligand that gives 80% activation. […]

The structures appear in SMILES notation.

We go through two molecules from US7439396B2, “Pharmaceutical/cosmetic compositions comprising novel ligands that activate RAR receptors” (Galderma Research & Development, priority 2003, dated 2008).

As a reminder, the AC50 is the concentration giving half of the maximal activity seen. Lower therefore signals greater potency.

In the case of `CCN(CC)c1ccc(C(COc2ccc(C(=O)O)cc2)=NO)cc1C(C)(C)C` [Ex 1, 4-[2-(3-tert-Butyl-4-diethylaminophenyl)-2-hydroxyiminoethoxy]benzoic acid], the half-maximal activity concentration (AC50) on RAR gamma was determined as 80 nM; at RAR beta, 2500 nM. The Kd at RAR gamma was determined as 60 nM; on RAR beta, 500 nM.
Take `CCN(CC)c1ccc(C(COc2ccc(C(=O)O)c(O)c2)=NO)cc1C(C)(C)C` [Ex 2, 4-[2-(3-tert-Butyl-4-diethylaminophenyl)-2-hydroxyiminoethoxy]-2-hydroxybenzoic acid]: the half-maximal activity concentration (AC50) at RAR gamma was determined as 4 nM; at RAR beta, 1000 nM; on RAR alpha (at the reference ligand concentration that gives 80% activation) it was 5000 nM. The Kd was 4 nM at RAR gamma; 500 nM at RAR beta; 5000 nM on RAR alpha (crossed curves against reference antagonist, Schild regression, read-out: RAR alpha Kd app).
